{"source": "patent US10351500B2", "about": "“Method of using of dihydro-resveratrol or its stilbenoid derivatives and/or chemical variants as antimicrobial agents” (Hong Kong Baptist University, priority 2015, dated 2019)", "key": {"[1]": {"system": "human embryonic kidney HEK293 cell line", "experiment": "MTT cell viability assay, HEK293", "type": "cell-based", "experimental": "The human colorectal carcinoma HCT-116 cell line, human pancreatic ductal adenocarcinoma PANC-1 cell line, human melanoma A375 cell line and human embryonic kidney HEK293 cell line were purchased from the American Type Culture Collection. Cells were cultured in high glucose DMEM growth medium supplemented with 10% fetal bovine serum, penicillin and streptomycin (100 U) in a humidified atmosphere of 5% CO2, 95% air at 37° C. Upon the addition of dihydro-resveratrol (D-res) to the HCT-116, PANC-1, A375 or HEK293 cells seeded at a density of 8000 cells per well in a 96-well plate format, the viability of the testing cells was determined 24 h post treatment using the (3-(4,5-dimethylthiazol-2-yl)-2,5-diphenyltetrazolium bromide) tetrazolium (MTT) reduction assay and expressed as growth inhibition of 50% (GI50, Table 6)."}, "[2]": {"system": "HCT-116 human colorectal carcinoma xenograft tumor", "experiment": "HCT-116 nude mouse xenograft model", "type": "in vivo, BALB/c nude mice", "details": "for Body weight: tumor-bearing nude mice, D-res 100 mg/kg i.p.", "source_text": "All animal studies were approved and performed according to Animal Care and Use Guidelines of the Animal Ethics Committee at Hong Kong Baptist University. BALB/c nude mice, SPF class, male, 6-8 weeks old, were purchased from BioLASCO, Taiwan. Before the xenograft experiment, the mice were acclimatized to SPF class laboratory conditions for a week.\nHCT-116 cells in logarithmic growth phase were collected by trypsinization. After centrifugation and rinsing, cells were re-suspended in serum-free DMEM medium at 3×10^7 cells/mL. Nude mice were skin disinfected with 75% medical ethanol, subcutaneously injected with 100 μL of the HCT-116 cell suspension using a 25-G syringe to their left flank. The same procedure was repeated for the tumor cell injection to the right flank.\nSeven days after tumor cell injection, 24 mice with tumor volumes of 32 mm^3 to 178 mm^3 were randomly assigned into 3 groups; the average initial tumor volumes in each group of mice were 78.04±7.76 mm^3 (vehicle, 8 mice), 78.76±9.40 mm^3 (5-FU, 8 mice), 78.01±7.75 mm^3 (D-res, 8 mice) respectively.\nVehicle solution: 2.5% Ethanol and Cremphor EL (1:1 v/v) dissolved in physiological saline.\n5-FU solution: 5-FU powder was dissolved in 2.5% Ethanol and Cremphor EL to a concentration of 5 mg/mL.\nD-res solution: Dihydro-resveratrol powder was dissolved in 2.5% Ethanol and Cremphor EL solution to a concentration of 20 mg/mL.\nVehicle group (n=8): 2.5% Ethanol and Cremphor EL solution was intraperitoneally injected every other day for 21 days.\n5-FU group (n=8): 5-FU solution was given to mice at 25 mg/kg by intraperitoneal injection every other day for 21 days.\nD-res group (n=8): D-res solution was given to mice at 100 mg/kg by intraperitoneal injection every other day for 21 days. This is equivalent to a dosage of no less than 8.13 mg/kg of bodily weight in human."}, "[3]": {"system": "LTC-14 cells (pancreatic stellate cells)", "experiment": "Western blotting of α-SMA and FN1 in TGF-β-challenged LTC-14 PSCs", "type": "cell-based, rat", "experimental": "LTC-14 cells were cultured at 37° C. under a humidified condition of 95% air and 5% CO2 in IMDM supplemented with 10% fetal bovine serum (FBS). Cells used in all the experiment were among passages 9 to 25. LTC-14 cells were seeded at a density of 1×10^5/well in a 12-well plate, and incubated with recombinant TGF-β at 5 ng/mL with dihydro-resveratrol at 0, 1, 5, 10 and 20 μg/mL in IMDM supplemented with 0.2% FBS for 24 hours. Cells were then harvested for protein extraction and Western blotting analysis or immunofluorescent staining.\nTotal proteins of the LTC-14 cells are extracted using RIPA lysis buffers containing protease inhibitors. Cell lysates were loaded and separated by SDS-polyacrylaminde gel electrophoresis. After wet electroblotting, proteins were transferred onto PVDF membranes (Bio-rad), blocked with 5% non-fat milk, probed with antibodies and visualized by utilization of an ECL kit (GE Healthcare).\nControl was not treated with Resv or any stilbenoids. Total proteins were extracted and analyzed using Western blotting.\nTotal proteins were extracted and analyzed using Western blotting."}, "[4]": {"details": "21-day administration, 100 mg/kg i.p."}}, "data": [{"molecule": "Oc1ccc(CCc2cc(O)cc(O)c2)cc1", "note": "[Dihydro-resveratrol, trans-3,5,4′-trihydroxybibenzyl]", "values": [{"measurement": "GI50", "setting": "[1]; Homo sapiens, HEK293 embryonic kidney (serves as normal control), 24 h, MTT", "value": "244.1 ± 0.96", "unit": "µM"}, {"measurement": "selectivity implied by GI50 values (carcinoma cells vs HEK293)", "setting": "[1]; Table 6", "value": "selectivity towards carcinoma cells"}, {"measurement": "effect on body weight of the nude mice", "setting": "[2]; [4]", "value": "did not lead to a notable reduction in body weight"}, {"measurement": "growth of xenograft tumor (size, volume, weight) compared to 5-FU", "setting": "[2]; [4]", "value": "more sufficiently restrained"}, {"measurement": "Tumor Volume (mm^3)", "setting": "[2]; Day 1 (initial), i.p. every other day, 5-FU 25 mg/kg, D-res 100 mg/kg", "value": "78.01 ± 7.75", "unit": "mm^3"}, {"measurement": "Body weight", "setting": "[2]; Day 1, 5-FU 25 mg/kg", "value": "20.69 ± 0.55", "unit": "g"}, {"measurement": "Tumor Volume (mm^3)", "setting": "[2]; Day 4, i.p. every other day, 5-FU 25 mg/kg, D-res 100 mg/kg", "value": "137.54 ± 14.69", "unit": "mm^3"}, {"measurement": "Body weight", "setting": "[2]; Day 4, 5-FU 25 mg/kg", "value": "20.76 ± 0.65", "unit": "g"}, {"measurement": "Tumor Volume (mm^3)", "setting": "[2]; Day 7, i.p. every other day, 5-FU 25 mg/kg, D-res 100 mg/kg", "value": "167.58 ± 22.65", "unit": "mm^3"}, {"measurement": "Body weight", "setting": "[2]; Day 7, 5-FU 25 mg/kg", "value": "20.33 ± 0.9", "unit": "g"}, {"measurement": "Tumor Volume (mm^3)", "setting": "[2]; Day 10, i.p. every other day, 5-FU 25 mg/kg, D-res 100 mg/kg", "value": "273.28 ± 41.5", "unit": "mm^3"}, {"measurement": "Body weight", "setting": "[2]; Day 10, 5-FU 25 mg/kg", "value": "20.57 ± 0.66", "unit": "g"}, {"measurement": "Tumor Volume (mm^3)", "setting": "[2]; Day 13, i.p. every other day, 5-FU 25 mg/kg, D-res 100 mg/kg", "value": "355.48 ± 78.57", "unit": "mm^3"}, {"measurement": "Body weight", "setting": "[2]; Day 13, 5-FU 25 mg/kg", "value": "20.53 ± 0.82", "unit": "g"}, {"measurement": "Tumor Volume (mm^3)", "setting": "[2]; Day 16, i.p. every other day, 5-FU 25 mg/kg, D-res 100 mg/kg", "value": "409.35 ± 74.3", "unit": "mm^3"}, {"measurement": "Body weight", "setting": "[2]; Day 16, 5-FU 25 mg/kg", "value": "20.31 ± 0.88", "unit": "g"}, {"measurement": "Tumor Volume (mm^3)", "setting": "[2]; Day 19, i.p. every other day, 5-FU 25 mg/kg, D-res 100 mg/kg", "value": "585.98 ± 110.96", "unit": "mm^3"}, {"measurement": "Body weight", "setting": "[2]; Day 19, 5-FU 25 mg/kg", "value": "20.51 ± 0.87", "unit": "g"}, {"measurement": "Tumor Volume (mm^3)", "setting": "[2]; Day 21, i.p. every other day, 5-FU 25 mg/kg, D-res 100 mg/kg", "value": "559.76 ± 100.63", "unit": "mm^3"}, {"measurement": "Body weight", "setting": "[2]; Day 21, 5-FU 25 mg/kg", "value": "18.79 ± 0.59", "unit": "g"}, {"measurement": "Tumor Volume (mm^3)", "setting": "[2]; Day 22, i.p. every other day, 5-FU 25 mg/kg, D-res 100 mg/kg", "value": "586.92 ± 88.51", "unit": "mm^3"}, {"measurement": "Body weight", "setting": "[2]; Day 22, 5-FU 25 mg/kg", "value": "20.63 ± 0.99", "unit": "g"}, {"measurement": "Tumor weight", "setting": "[2]; treated for 21 days, i.p. every other day, 5-FU 25 mg/kg, D-res 100 mg/kg", "value": "0.60 ± 0.11", "unit": "g"}, {"measurement": "expression levels of α-SMA and FN1", "setting": "[3]; rat PSCs upon challenge of TGF-β", "value": "significantly attenuate"}, {"measurement": "anti-fibrotic effect in PSCs among the testing stilbenoids", "setting": "[3]; rat PSCs, TGF-β", "value": "most potent anti-fibrotic effect"}]}]}
